This note sets out measurements from paper PMC11173533, “Baicalin and Baicalein Enhance Cytotoxicity, Proapoptotic Activity, and Genotoxicity of Doxorubicin and Docetaxel in MCF-7 Breast Cancer Cells” (Molecules, 2024).

Several values for one entry are separate records, joined by “and”; a condition that tells them apart may be missing. Identical values can stand only once.

What all share (type): cell-based, human
The subject of data set [1] is MCF-7 cells. As to the kind of experiment: Flavonoid-drug combination index (MTT, CompuSyn) in MCF-7 cells. The procedure: (§1) The experiment with a non-constant combination of BLIN and BLEIN with DOX or DTX was carried out to determine the synergistic, additive, or antagonistic effect between investigated flavonoids and anticancer drugs. […] Subsequently, cell viability was determined by MTT assay. […] The results were presented as a combination index (CI).

In data set [2] the test system is HUVEC-ST cells. As to the kind of experiment: Mitochondrial membrane potential (JC-1) in HUVEC-ST cells. On the procedure: (§2) Unless otherwise indicated, in experiments, cells were seeded at an appropriate density for the specific assay into 96-well plates or Petri dishes. They were then incubated in standard culture conditions, which included a temperature of 37 °C, 100% relative humidity, and a 5% CO2 incubator. […] After treatment, the cells were washed with PBS and, depending on the experiment, immediately used for measurement or cultured in a fresh medium for 24 or 48 h. Control cells were treated with a corresponding volume of PBS. Additional controls for solvents were also performed.
(§3) The mitochondrial membrane potential was measured with the membrane-permeant JC-1 fluorescent probe. […] Thus, the measurement of the ratio of JC-1 dimer to monomer fluorescence can be used for estimating changes in mitochondrial membrane potential (ΔΨm).
(§4) The cells were then incubated in complete darkness for 30 min at 37 °C. After incubation, the cells were washed to remove the dye and suspended in fresh HBSS solution. Finally, the fluorescence intensity was measured using a Cary Eclipse spectrofluorometer (Varian, Inc.) at λex/em = 475 nm/530 nm for monomers and at λex/em = 535 nm/590 nm for dimers. Subsequently, the ratio of the fluorescence intensities at 530 nm/590 nm was calculated. The mitochondrial potential in both cell lines was measured immediately after incubation with investigated compounds. The results are expressed as a percentage of the control, considered 100%.

Data set [3] deals with HUVEC-ST cells. Kind of data set: Flavonoid-drug combination index (MTT, CompuSyn) in HUVEC-ST cells. The procedure: as §1
Data set [4] has as its system HUVEC-ST cells. As to the kind of experiment: MTT cell viability assay on HUVEC-ST cells. The note with it: for Inhibitory concentration IC10 (reduces cell viability by 10%) / IC50: HUVEC-ST cell line, 24 h incubation, MTT; for Concentrations that significantly decreased cell viability: HUVEC-ST, 24 h incubation with flavonoid, p < 0.05 vs control; for IC50: Homo sapiens, read-out: Inhibitory concentration IC50 (reduces cell viability by 50%). The procedure: as §2
The principle of the method is a measurement of the absorbance of formazan, a product of the reduction of the water-soluble tetrazolium salt (MTT) by NADPH-dependent cellular oxidoreductases (mainly succinate dehydrogenase) in living cells. Formazan is insoluble in water and precipitates as purple crystals. The amount of formazan is proportional to the number of living and metabolically active cells.
After treatment, the cells were washed with PBS and cultured in a fresh medium for 48 h. Subsequently, the medium was aspirated, and an aliquot of 50 µL of 0.05 mg/mL MTT solution was added to each microplate well for 3 h. The formazan crystals were dissolved in dimethyl sulfoxide (DMSO), and the absorbance was measured at a wavelength of λ = 580 nm. The percentage of viable cells was calculated by comparing the absorbance value of the test samples to the absorbance value of the control, taking the absorbance of the control as 100%.

Data set [5] deals with MCF-7 cells. Kind of data set: Mitochondrial membrane potential (JC-1) in MCF-7 cells. The procedure:
as §2, §3, §4

The subject of data set [6] is MCF-7 cells. As to the kind of experiment: Annexin V FITC/propidium iodide double staining in MCF-7 cells. The note with it: for Viable cells: docetaxel IC50 + high concentration of flavonoid. On the procedure: as §2
This assay is based on the principle that, in viable cells, phosphatidylserine (PS) is located in the inner membrane (side facing the cytoplasm). However, upon induction of apoptosis, PS is translocated to the outer membrane (PS also appears on the necrotic cell surface). The exposed phosphatidylserine can be detected by protein Annexin V stained with FITC dye. The addition of propidium iodide (PI) enabled necrotic cells to be distinguished. Thus, this method is convenient for counting and differentiating live cells from those undergoing apoptosis or necrosis.
The analysis was performed according to the manufacturer’s protocol on cells immediately after the treatment and 24 or 48 h postincubation. Samples were analyzed using the flow cytometer LSR® II from Becton Dickinson (San Jose, CA, USA) using an argon laser with a wavelength of λ = 488 nm.

Data set [7] relates to HUVEC-ST cells. As to the kind of experiment: Alkaline comet assay in HUVEC-ST cells. The conditions noted are these: doxorubicin IC50 + flavonoid IC50 preincubation, longest postincubation time (48 h). On the procedure:
as §2
The comet assay, also known as the single-cell gel electrophoresis assay, is a highly sensitive and versatile method for measuring single- and double-stranded DNA breaks. The assay uses an electric field to move negatively charged DNA fragments through an agarose gel. The amount of migration reflects the level of DNA damage in the cells.
The analysis was performed under alkaline conditions, according to the method of Singh et al., on cells immediately after the treatment and 24 or 48 h postincubation. A suspension of cells was mixed with low-melting-point agarose (LMP type XI) and spread onto a microscope glass slide previously coated with standard melting point agarose (NMP type I). After 2 h of cells lysis in a buffer containing (2.5 mol/L NaCl, 100 mmol/L Na2-EDTA, 10 mmol/L TRIS, 1% Triton X-100), DNA unwinding and electrophoresis were carried out in a buffer containing (1 mmol/L Na2-EDTA, 300 mmol/L NaOH) and (29 V, 30 mA). Before analysis, the slides were stained with DAPI solution (2 μg/mL). One hundred randomly chosen cells were analyzed on each slide using a fluorescence microscope Zeiss Axio Scope A1 (Carl Zeiss, Oberkochen, Germany) with a video camera connected to the image-analysis system Lucia-Comet v. 7.60 (Laboratory Imaging, Praha, Czech Republic).

The test system of data set [8] is HUVEC-ST cells. As to the kind of experiment: Cytometric measurement of doxorubicin accumulation in HUVEC-ST cells. The note with it: 22 h preincubation with flavonoid IC50, 1 h study period. On the procedure: The aromatic rings in the hydrophobic part of doxorubicin give the drug molecule fluorescent properties (λex = 490 nm, λem = 590 nm). Thus, the flow cytometric measurement of drug fluorescence inside the cells allows for the monitoring of its transport rate through the cell membrane. The increase in the intensity of drug fluorescence inside the cells is highly correlated with its accumulation.
The DOX was added to the cell suspension to achieve a final concentration equal to the IC50 value. During one hour of incubation (temp 37 °C) with the drug, samples for cytometric measurement were taken from the cell suspension after the first 5 min and then after every 10 min. Samples were analyzed using the flow cytometer LSR® II from Becton Dickinson (San Jose, CA, USA) using an argon laser with a wavelength of λ = 488 nm. Doxorubicin fluorescence intensity was calculated per single cell.

Setting [9] is: flavonoid IC10 22 h preincubation + DOX IC50 2 h.
The mark [10] stands for this setting: flavonoid IC10 22 h preincubation + DTX IC50 2 h.
[11] abbreviates: flavonoid IC50 22 h preincubation + DOX IC50 2 h.
The mark [12] stands for this setting: flavonoid IC50 22 h preincubation + DTX IC50 2 h.
[13] abbreviates: flavonoid IC50 alone 24 h, control = 100%.
[14] abbreviates: doxorubicin IC50 after 22 h preincubation with flavonoid IC50.
Setting [15] is: doxorubicin IC50 + flavonoid IC50 preincubation, 48 h post-incubation.
Setting [16] is: flavonoid IC50 alone 24 h, 24 h after incubation.
The mark [17] stands for this setting: flavonoid IC50 alone 24 h, 48 h after incubation.

As for `O=C(O)[C@H]1O[C@@H](Oc2cc3oc(-c4ccccc4)cc(=O)c3c(O)c2O)[C@H](O)[C@@H](O)[C@@H]1O` [baicalin, baicalein 7-O-β-D-glucuronide], the “Combination index (CI)” value in data set [1] (setting [9]) turned out to be 1.158; in data set [1] (setting [10]) it was 0.9652; in data set [1] (setting [11]), 0.6435; in data set [1] (setting [12]) it was 0.5421; in data set [3] (setting [9]), 2.915; in data set [3] (setting [10]), 0.9948. The “Combination index (CI)” value was 1.794 in data set [3] (setting [11]); 3.1 and 3.137 in data set [3] (setting [12]). For the same molecule, the “Mitochondrial membrane potential ΔΨm, % of control” value in data set [2] (setting [13]) turned out to be 72%; in data set [5] (setting [14]), 31%; in data set [5] (setting [13]), 30%. Moreover, the “Inhibitory concentration IC10 (reduces cell viability by 10%)” value in data set [4] is 101 ± 10.7 µM. For the same molecule, in data set [4], the “Concentrations that significantly decreased cell viability” value is reported as not below 112 µmol/L. Further, the IC50 in data set [4] worked out at 167 ± 6.7 µM. Moreover, the figures for the Viable cells in data set [6] (24 h after incubation) and in data set [6] (48 h after incubation) were 22% and 24%, respectively. For the same molecule, the “AV+/PI− cells (undergoing apoptosis)” value in data set [6] (setting [15]) is recorded as 34%; in data set [6] (setting [16]), approximately 20%. Further, the “AV+/PI+ cells” value in data set [6] (setting [17]) is given as 25%. The “DNA in the comet tail” value in data set [7] is 3%. In addition, the “Enhancement of doxorubicin accumulation/influx” value in data set [8] was “observed only during the first 30 min of the study”.
For the molecule `O=c1cc(-c2ccccc2)oc2cc(O)c(O)c(O)c12` [baicalein, 5,6,7-Trihydroxyflavone], the “Combination index (CI)” value in data set [1] (setting [9]) is listed as 1.073; in data set [1] (setting [10]) it was 1.08; in data set [1] (setting [11]), 0.3412; in data set [1] (setting [12]), 0.6276; in data set [3] (setting [9]) it was 0.8721; in data set [3] (setting [10]), 0.9611. For the same molecule, the “Combination index (CI)” value in data set [3] (setting [11]) is 0.6801; in data set [3] (setting [12]), 0.4428. In addition, the “Mitochondrial membrane potential ΔΨm, % of control” value in data set [2] (setting [14]) came out at 33%; in data set [2] (setting [13]) it was 59%; in data set [5] (docetaxel IC50 after 22 h preincubation with flavonoid IC50), 18%; in data set [5] (setting [14]), 20%; in data set [5] (setting [13]), 30%. Also, the “Mitochondrial membrane potential ΔΨm” value in data set [2] (doxorubicin IC50 after preincubation with flavonoid in low concentration (IC10)) was “increasing ΔΨm to the level of control”. Besides, the “Inhibitory concentration IC10 (reduces cell viability by 10%)” value in data set [4] was 75 ± 1.8 µM. Moreover, in data set [4], the “Concentrations that significantly decreased cell viability” value is recorded as not below 56 µmol/L. The IC50 in data set [4] was 115 ± 2.6 µM. Moreover, the “AV+/PI− cells (undergoing apoptosis)” value in data set [6] (setting [15]) is given as 21%; in data set [6] (setting [16]), approximately 20%. Moreover, in data set [6] (setting [17]), the “AV+/PI+ cells” value is listed as 28%. Further, in data set [7], the “DNA in the comet tail” value worked out at 5%. Further, the “Enhancement of doxorubicin accumulation/influx” value in data set [8] was “increased doxorubicin accumulation was maintained for the whole study period”.
